Source: patent publication US20240238242A1, “EGCG buccal tablet and use thereof” (priority 2023, published 2024)
Several values for one entry are separate records, joined by “and”; a condition that tells them apart may be missing. Equal entries are not always repeated. Where two headings read alike, the source gives them in different places.

Test system: Influenza A virus neuraminidase inhibitor-resistant strain (ZX-1109)
Assay type: cell-based
Settings: for average inactivation efficiency against virus: ZX1109 virus, three experiments; for residual virus titer of EGCG+virus group (Karber method) / inactivation efficiency against the virus: ZX-1109 virus; for inactivation efficiency against the virus: single experiment

Question: With `O=C(O[C@@H]1Cc2c(O)cc(O)cc2O[C@@H]1c1cc(O)c(O)c(O)c1)c1cc(O)c(O)c(O)c1` [EGCG, Epigallocatechin gallate] as the compound, how does the “CPE test (virus replication in the cell wells)” value (1 mM EGCG + ZX-1109 virus, 1 minute, third experiment, dilution factor 10^6, wells 1-10) read?
Answer: − and +

Question: And the “CPE test (virus replication in the cell wells)” value (1 mM EGCG + ZX-1109 virus, 1 minute, third experiment, dilution factor 10^7, wells 1-10)?
Answer: −

Question: What about the “CPE test (virus replication in the cell wells)” value (1 mM EGCG + ZX-1109 virus, 1 minute, third experiment, dilution factor 10^8, wells 1-10) of the same compound?
Answer: −

Question: And the “CPE test (virus replication in the cell wells)” value (1 mM EGCG + ZX-1109 virus, 5 minute, first experiment, dilution factor 10^2, wells 1-10)?
Answer: +

Question: And the “CPE test (virus replication in the cell wells)” value (1 mM EGCG + ZX-1109 virus, 5 minute, first experiment, dilution factor 10^3, wells 1-10)?
Answer: +

Question: What about the “CPE test (virus replication in the cell wells)” value (1 mM EGCG + ZX-1109 virus, 5 minute, first experiment, dilution factor 10^4, wells 1-10) of the same compound?
Answer: +

Question: And the “CPE test (virus replication in the cell wells)” value (1 mM EGCG + ZX-1109 virus, 5 minute, first experiment, dilution factor 10^5, wells 1-10)?
Answer: + and −

Question: What about the “CPE test (virus replication in the cell wells)” value (1 mM EGCG + ZX-1109 virus, 5 minute, first experiment, dilution factor 10^6, wells 1-10) of the same compound?
Answer: − and +

Question: And the “CPE test (virus replication in the cell wells)” value (1 mM EGCG + ZX-1109 virus, 5 minute, first experiment, dilution factor 10^7, wells 1-10)?
Answer: − and +

Question: What about the “CPE test (virus replication in the cell wells)” value (1 mM EGCG + ZX-1109 virus, 5 minute, first experiment, dilution factor 10^8, wells 1-10) of the same compound?
Answer: + and −

Question: What about the “CPE test (virus replication in the cell wells)” value (1 mM EGCG + ZX-1109 virus, 5 minute, second experiment, dilution factor 10^2, wells 1-10) of the same compound?
Answer: +

Question: And the “CPE test (virus replication in the cell wells)” value (1 mM EGCG + ZX-1109 virus, 5 minute, second experiment, dilution factor 10^3, wells 1-10)?
Answer: +

Question: What about the “CPE test (virus replication in the cell wells)” value (1 mM EGCG + ZX-1109 virus, 5 minute, second experiment, dilution factor 10^4, wells 1-10) of the same compound?
Answer: +

Question: And the “CPE test (virus replication in the cell wells)” value (1 mM EGCG + ZX-1109 virus, 5 minute, second experiment, dilution factor 10^5, wells 1-10)?
Answer: + and −

Question: What about the “CPE test (virus replication in the cell wells)” value (1 mM EGCG + ZX-1109 virus, 5 minute, second experiment, dilution factor 10^6, wells 1-10) of the same compound?
Answer: − and +

Question: What about the “CPE test (virus replication in the cell wells)” value (1 mM EGCG + ZX-1109 virus, 5 minute, second experiment, dilution factor 10^7, wells 1-10) of the same compound?
Answer: − and +

Question: What about the “CPE test (virus replication in the cell wells)” value (1 mM EGCG + ZX-1109 virus, 5 minute, second experiment, dilution factor 10^8, wells 1-10) of the same compound?
Answer: − and +

Question: What about the “CPE test per cell well” value (1 mM EGCG + ZX-1109 virus, 5 minute, third experiment, dilution factor 10^2, wells 1-10) of the same compound?
Answer: +

Question: And the “CPE test per cell well” value (1 mM EGCG + ZX-1109 virus, 5 minute, third experiment, dilution factor 10^3, wells 1-10)?
Answer: +

Question: What about the “CPE test per cell well” value (1 mM EGCG + ZX-1109 virus, 5 minute, third experiment, dilution factor 10^4, wells 1-10) of the same compound?
Answer: +

Question: And the “CPE test per cell well” value (1 mM EGCG + ZX-1109 virus, 5 minute, third experiment, dilution factor 10^5, wells 1-10)?
Answer: − and +

Question: And the “CPE test per cell well” value (1 mM EGCG + ZX-1109 virus, 5 minute, third experiment, dilution factor 10^6, wells 1-10)?
Answer: + and −

Question: What about the “CPE test per cell well” value (1 mM EGCG + ZX-1109 virus, 5 minute, third experiment, dilution factor 10^7, wells 1-10) of the same compound?
Answer: − and +

Question: What about the “CPE test per cell well” value (1 mM EGCG + ZX-1109 virus, 5 minute, third experiment, dilution factor 10^8, wells 1-10) of the same compound?
Answer: + and −

Question: And the “average inactivation efficiency against virus” value (shortened to “average inactivation efficiency”) (1 mM EGCG, 1 minute)?
Answer: 89.97%

Question: What about the “average inactivation efficiency” value (1 mM EGCG, 5 minutes) of the same compound?
Answer: 97.59%

Question: And the “residual virus titer of EGCG+virus group (Karber method)” value (1 mM EGCG, 1 minute)?
Answer: 10^5 TCID50/50 μL

Question: And the “inactivation efficiency against the virus” value (1 mM EGCG, 1 minute)?
Answer: 93.69% and 92.06% and 84.15%

Question: What about the “residual virus titer of EGCG+virus group (Karber method)” value (1 mM EGCG, 5 minutes) of the same compound?
Answer: 10^6 TCID50/50 μL

Question: And the “inactivation efficiency against the virus” value (1 mM EGCG, 5 minutes)?
Answer: 96.02% and 98.74% and 98.00%

Question: And the “CPE test per cell well” value (5 mM EGCG + ZX1109 virus, 1 minute, second experiment, dilution factor 10^3, wells 1-10)?
Answer: +

Question: And the “CPE test per cell well” value (5 mM EGCG + ZX1109 virus, 1 minute, second experiment, dilution factor 10^4, wells 1-10)?
Answer: + and −

Question: And the “CPE test per cell well” value (5 mM EGCG + ZX1109 virus, 1 minute, second experiment, dilution factor 10^5, wells 1-10)?
Answer: − and +

Question: And the “CPE test per cell well” value (5 mM EGCG + ZX1109 virus, 1 minute, second experiment, dilution factor 10^6, wells 1-10)?
Answer: −

Question: And the “CPE test per cell well” value (5 mM EGCG + ZX1109 virus, 1 minute, second experiment, dilution factor 10^7, wells 1-10)?
Answer: −

Question: And the “CPE test per cell well” value (5 mM EGCG + ZX1109 virus, 1 minute, second experiment, dilution factor 10^8, wells 1-10)?
Answer: −

Question: And the “CPE test per cell well” value (5 mM EGCG + ZX-1109 virus, 1 minute, first experiment, dilution factor 10^2, wells 1-10)?
Answer: +

Question: And the “CPE test per cell well” value (5 mM EGCG + ZX-1109 virus, 1 minute, first experiment, dilution factor 10^3, wells 1-10)?
Answer: +

Question: What about the “CPE test per cell well” value (5 mM EGCG + ZX-1109 virus, 1 minute, first experiment, dilution factor 10^4, wells 1-10) of the same compound?
Answer: + and −

Question: And the “CPE test per cell well” value (5 mM EGCG + ZX-1109 virus, 1 minute, first experiment, dilution factor 10^5, wells 1-10)?
Answer: + and −

Question: What about the “CPE test per cell well” value (5 mM EGCG + ZX-1109 virus, 1 minute, first experiment, dilution factor 10^6, wells 1-10) of the same compound?
Answer: −

Question: What about the “CPE test per cell well” value (5 mM EGCG + ZX-1109 virus, 1 minute, first experiment, dilution factor 10^7, wells 1-10) of the same compound?
Answer: −

Question: What about the “CPE test per cell well” value (5 mM EGCG + ZX-1109 virus, 1 minute, first experiment, dilution factor 10^8, wells 1-10) of the same compound?
Answer: −

Question: What about the “CPE test (virus replication in the cell wells)” value (5 mM EGCG + ZX-1109 virus, 1 minute, third experiment, dilution factor 10^2, wells 1-10) of the same compound?
Answer: +

Question: What about the “CPE test (virus replication in the cell wells)” value (5 mM EGCG + ZX-1109 virus, 1 minute, third experiment, dilution factor 10^3, wells 1-10) of the same compound?
Answer: +

Question: What about the “CPE test (virus replication in the cell wells)” value (5 mM EGCG + ZX-1109 virus, 1 minute, third experiment, dilution factor 10^4, wells 1-10) of the same compound?
Answer: + and −

Question: And the “CPE test (virus replication in the cell wells)” value (5 mM EGCG + ZX-1109 virus, 1 minute, third experiment, dilution factor 10^5, wells 1-10)?
Answer: −

Question: And the “CPE test (virus replication in the cell wells)” value (5 mM EGCG + ZX-1109 virus, 1 minute, third experiment, dilution factor 10^6, wells 1-10)?
Answer: −

Question: And the “CPE test (virus replication in the cell wells)” value (5 mM EGCG + ZX-1109 virus, 1 minute, third experiment, dilution factor 10^7, wells 1-10)?
Answer: −

Question: And the “CPE test (virus replication in the cell wells)” value (5 mM EGCG + ZX-1109 virus, 1 minute, third experiment, dilution factor 10^8, wells 1-10)?
Answer: −

Question: What about the “CPE test (virus replication in the cell wells)” value (5 mM EGCG + ZX-1109 virus, 5 minute, first experiment, dilution factor 10^3, wells 1-10) of the same compound?
Answer: +

Question: What about the “CPE test (virus replication in the cell wells)” value (5 mM EGCG + ZX-1109 virus, 5 minute, first experiment, dilution factor 10^4, wells 1-10) of the same compound?
Answer: + and −

Question: What about the “CPE test (virus replication in the cell wells)” value (5 mM EGCG + ZX-1109 virus, 5 minute, first experiment, dilution factor 10^5, wells 1-10) of the same compound?
Answer: − and +

Question: What about the “CPE test (virus replication in the cell wells)” value (5 mM EGCG + ZX-1109 virus, 5 minute, first experiment, dilution factor 10^6, wells 1-10) of the same compound?
Answer: − and +

Question: What about the “CPE test (virus replication in the cell wells)” value (5 mM EGCG + ZX-1109 virus, 5 minute, first experiment, dilution factor 10^7, wells 1-10) of the same compound?
Answer: − and +

Question: What about the “CPE test (virus replication in the cell wells)” value (5 mM EGCG + ZX-1109 virus, 5 minute, first experiment, dilution factor 10^8, wells 1-10) of the same compound?
Answer: −

Question: What about the “CPE test (virus replication in the cell wells)” value (5 mM EGCG + ZX-1109 virus, 5 minute, second experiment, dilution factor 10^3, wells 1-10) of the same compound?
Answer: +

Question: And the “CPE test (virus replication in the cell wells)” value (5 mM EGCG + ZX-1109 virus, 5 minute, second experiment, dilution factor 10^4, wells 1-10)?
Answer: − and +

Question: What about the “CPE test (virus replication in the cell wells)” value (5 mM EGCG + ZX-1109 virus, 5 minute, second experiment, dilution factor 10^5, wells 1-10) of the same compound?
Answer: − and +

Question: And the “CPE test (virus replication in the cell wells)” value (5 mM EGCG + ZX-1109 virus, 5 minute, second experiment, dilution factor 10^6, wells 1-10)?
Answer: −

Question: What about the “CPE test (virus replication in the cell wells)” value (5 mM EGCG + ZX-1109 virus, 5 minute, second experiment, dilution factor 10^7, wells 1-10) of the same compound?
Answer: −

Question: And the “CPE test (virus replication in the cell wells)” value (5 mM EGCG + ZX-1109 virus, 5 minute, second experiment, dilution factor 10^8, wells 1-10)?
Answer: −

Question: What about the “CPE test per cell well” value (5 mM EGCG + ZX-1109 virus, 5 minute, third experiment, dilution factor 10^3, wells 1-10) of the same compound?
Answer: +

Question: What about the “CPE test per cell well” value (5 mM EGCG + ZX-1109 virus, 5 minute, third experiment, dilution factor 10^4, wells 1-10) of the same compound?
Answer: − and +

Question: And the “CPE test per cell well” value (5 mM EGCG + ZX-1109 virus, 5 minute, third experiment, dilution factor 10^5, wells 1-10)?
Answer: −

Question: What about the “CPE test per cell well” value (5 mM EGCG + ZX-1109 virus, 5 minute, third experiment, dilution factor 10^6, wells 1-10) of the same compound?
Answer: −

Question: What about the “CPE test per cell well” value (5 mM EGCG + ZX-1109 virus, 5 minute, third experiment, dilution factor 10^7, wells 1-10) of the same compound?
Answer: −

Question: And the “CPE test per cell well” value (5 mM EGCG + ZX-1109 virus, 5 minute, third experiment, dilution factor 10^8, wells 1-10)?
Answer: −

Question: What about the “average inactivation efficiency” value (5 mM EGCG, 1 minute) of the same compound?
Answer: 93.73%

Question: What about the “average inactivation efficiency” value (5 mM EGCG, 5 minutes) of the same compound?
Answer: 99.86%

Question: What about the “inactivation efficiency against the virus” value (5 mM EGCG, 1 minute) of the same compound?
Answer: 90.00% and 93.69% and 97.49%

Question: And the “inactivation efficiency against the virus” value (5 mM EGCG, 5 minutes)?
Answer: 99.60% and 99.99%
